Measured values reported in patent US8088433B2, “Mononuclearly filled microcapsules” (Symrise AG, priority 2001, dated 2012).

Columns and labels:
[1] = cited from earlier work; for logKo/w / logPo/w: n-octanol/water distribution coefficient; for logKo/w: log10[co/cw], grouping of flavor substances by difficulty of encapsulation; for Log Ko/w: components of the Model flavor, Table 9
[2] = flavor retention of Model-flavor components in alginate capsules, short continuous vs long batch gelling (ether extraction, HRGC/MS); type: physicochemical; details: wet alginate capsules, 5% calcium chloride, relative to Model-flavor solution theoretically encapsulated; for Flavor Retention, Short Gel Time (continuous): dwell time 1 minute; for Flavor Retention, Long Gel Time (Batch): dwell time 2 hours
Protocol: 50 g sodium alginate were dissolved in 195 g demineralized water using a high speed kneading mixer of the type Ultra-Turrax. 250 g Model-flavor were dissolved in 750 g neutral oil. The Model flavor was comprised of flavor components, which cover a large spectrum of water/oil solubility as indicated by logKo/w-values, see the following Table 9.
The two solutions (alginate, flavor) were conveyed to a vibrating two-stream nozzle head with an inner diameter of 150 μm and an outer diameter of 500 μm. The flow rates were adjusted for the flavor solution to 500 g per hour and for the shell solution to 1000 g per hour, the vibration frequency was adjusted to 200 Hz.
For the preferred short continuous gelling process the formed discrete droplets fell into a pipe reactor, which was filled with 5% calcium chloride, and were so transported, that the dwell time was 1 minute.
The results of the 1 minute capsule production (corresponding to 8.3 g encapsulated flavor solution) were then dissolved in 200 ml 1% aqueous […] solution. The mixture was then extracted for 4 hours in a perforator with diethyl ether. The diethyl ether extract was analyzed using HRGC/MS. The results were evaluated based on the surface of the GC/MS peaks for the components per gram of encapsulated aroma solution.
For the batch gelled process the formed discrete droplets fell into a 5% calcium chloride containing reactor with a dwell time of 2 hours. […] The same analytical protocol was carried out as for the short gel time process.
10 g Model-flavor solution were dispersed in 200 ml 1% aqueous sodium citrate solution. The mixture was extracted in a perforator for 4 hours with diethyl ether and evaluated as described above.
The flavor retention for the respective flavor components during the short continuous gelling process and the long gel batch process were calculated on the basis of the amount of the Model-flavor solution which originally flowed through the nozzle system and theoretically was encapsulated, the results are presented in Table 10.

[3] = flavor retention of Model-flavor components in alginate capsules, drying with silicon dioxide vs fluidized bed drying; type: physicochemical; details: for Convective Drying: % Retention: 200 g wet capsules dried in fluidized bed dryer at 30° C., 100 m^3 per hour air flow, shell water content 62%; for Drying "water adsorbing" Substances: % Retention: 200 g wet capsules mixed 10 minutes with 100 g silicon dioxide, shell water content 45%

CC(C)CCO [isoamyl alcohol]
logKo/w [1]: 1.28 | logPo/w [1]: 1.22

CCCCCCC1CCC(=O)O1 (stereo not shown) [gamma-decalactone]
logKo/w [1]: 2.42

CC(=O)C(C)=O [diacetyl (butanedione), butanedione]
logKo/w [1]: 1.33

CCCCCC(=O)OCC [ethyl-caproate]
logKo/w [1]: 2.83

C=C(C)C1CC=C(C)C(=O)C1 (stereo not shown) [carvone]
logKo/w [1]: 2.23

O=Cc1ccccc1 [benzaldehyde]
Flavor Retention, Short Gel Time (continuous) [2]: 82% | Flavor Retention, Long Gel Time (Batch) [2]: 11% | Convective Drying: % Retention [3]: 52% | Drying "water adsorbing" Substances: % Retention [3]: 80%

CCOC(=O)CC [ethyl propionate]
Flavor Retention, Short Gel Time (continuous) [2]: 61% | Flavor Retention, Long Gel Time (Batch) [2]: 0% | Convective Drying: % Retention [3]: 4% | Drying "water adsorbing" Substances: % Retention [3]: 50% | Log Ko/w [1]: 1.24 | logKo/w [1]: 1.24

CCCC(=O)OCC [ethyl butyrate]
logKo/w [1]: 1.77 | logPo/w [1]: 1.73

C=C1CCC2CC1C2(C)C (stereo not drawn) [beta-pinene]
logKo/w [1]: 4.37

CCOC(C)=O [ethylacetate]
logKo/w [1]: 0.75

CC(=O)OCCC(C)C [isoamyl acetate]
Flavor Retention, Short Gel Time (continuous) [2]: 80% | Flavor Retention, Long Gel Time (Batch) [2]: 18.5% | Convective Drying: % Retention [3]: 60% | Drying "water adsorbing" Substances: % Retention [3]: 95% | Log Ko/w [1]: 2.12 | logPo/w [1]: 2.12

C=CC(C)(O)CCC=C(C)C (stereo not shown) [linalool]
logKo/w [1]: 3.28

CC=O [Acetaldehyde]
logPo/w [1]: −0.16

CCCCCCCC(=O)OCC [Ethylcaprylate]
Flavor Retention, Short Gel Time (continuous) [2]: 90% | Flavor Retention, Long Gel Time (Batch) [2]: 90% | Convective Drying: % Retention [3]: 65% | Drying "water adsorbing" Substances: % Retention [3]: 0% | Log Ko/w [1]: 3.9

CCOC(=O)C(C)O (stereo not shown) [ethyl lactate]
logKo/w [1]: 0.88
